Laboratory results as given in PubChem BioAssay AID1963827 (Molecular Pharmacology Branch, DTP, NCI, 2024).

Tested on: 994946-033-R-J1-PDC complex spheroid viability
Experiment: Anticancer human tumor 994946-033-R-J1-PDC patient-derived melanoma cell line growth inhibition [POLQ]
Settings: for IC50: curve of first compound; for viability, T/C: stronger effect = lower value
Procedure, shortened: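 Complex spheroid viability model combining PDC tumour cells with endothelial (HUVEC) and MSC stromal cells. Novobiocin, ART-558 or RP6685 were tested singly and in combination with standard and investigational anticancer drugs. Each was titrated in half-log steps from near clinical Cmax, or from 10 microM where Cmax was unknown.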

[1] = second compound 0.0316 µM, first compound 0.0316 µM
[2] = second compound 0.0316 µM, first compound 0.1 µM
[3] = second compound 0.0316 µM, first compound 0.316 µM
[4] = second compound 0.0316 µM, first compound 1 µM
[5] = second compound 0.0316 µM, first compound 3.16 µM
[6] = second compound 0.0316 µM, first compound 10 µM
[7] = second compound 0.1 µM, first compound 0.0316 µM
[8] = second compound 0.1 µM, first compound 0.1 µM
[9] = second compound 0.1 µM, first compound 0.316 µM
[10] = second compound 0.1 µM, first compound 1 µM
[11] = second compound 0.1 µM, first compound 3.16 µM
[12] = second compound 0.1 µM, first compound 10 µM
[13] = second compound 0.316 µM, first compound 0.0316 µM
[14] = second compound 0.316 µM, first compound 0.1 µM
[15] = second compound 0.316 µM, first compound 0.316 µM
[16] = second compound 0.316 µM, first compound 1 µM
[17] = second compound 0.316 µM, first compound 3.16 µM
[18] = second compound 0.316 µM, first compound 10 µM
[19] = second compound 1 µM, first compound 0.0316 µM
[20] = second compound 1 µM, first compound 0.1 µM
[21] = second compound 1 µM, first compound 0.316 µM
[22] = second compound 1 µM, first compound 1 µM
[23] = second compound 1 µM, first compound 3.16 µM
[24] = second compound 1 µM, first compound 10 µM
[25] = second compound 3.16 µM, first compound 0.0316 µM
[26] = second compound 3.16 µM, first compound 0.1 µM
[27] = second compound 3.16 µM, first compound 0.316 µM
[28] = second compound 3.16 µM, first compound 1 µM
[29] = second compound 3.16 µM, first compound 3.16 µM
[30] = second compound 3.16 µM, first compound 10 µM
[31] = second compound 10 µM, first compound 0.0316 µM
[32] = second compound 10 µM, first compound 0.1 µM
[33] = second compound 10 µM, first compound 0.316 µM
[34] = second compound 10 µM, first compound 1 µM
[35] = second compound 10 µM, first compound 3.16 µM
[36] = second compound 10 µM, first compound 10 µM
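Note: spheroids exposed to drugs for 7 days.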
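Throughout, for viability, T/C: 100% = DMSO vehicle treated spheroids.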

Nc1ccn(C2OC(CO)C(O)C2(F)F)c(=O)n1 (centres undefined) + Cc1cccc(N(C)C(=O)C2C(O)CCN2c2nc(C)cc(C(F)(F)F)c2C#N)c1
IC50 (second compound 0.0316 µM): < 31.6 nM
IC50 (second compound 0.1 µM): < 31.6 nM
IC50 (second compound 0.316 µM): < 31.6 nM
IC50 (second compound 1 µM): < 31.6 nM
IC50 (second compound 3.16 µM): < 31.6 nM
IC50 (second compound 10 µM): < 31.6 nM
viability, T/C [1]: 26.7%
viability, T/C [2]: 6.28%
viability, T/C [3]: 4.88%
viability, T/C [4]: 6.63%
viability, T/C [5]: 3.54%
viability, T/C [6]: 2.78%
viability, T/C [7]: 49.3%
viability, T/C [8]: 5.24%
viability, T/C [9]: 5.13%
viability, T/C [10]: 4.71%
viability, T/C [11]: 4.54%
viability, T/C [12]: 2.88%
viability, T/C [13]: 24.7%
viability, T/C [14]: 5.51%
viability, T/C [15]: 5.07%
viability, T/C [16]: 4.92%
viability, T/C [17]: 4.06%
viability, T/C [18]: 1.82%
viability, T/C [19]: 23.1%
viability, T/C [20]: 7.5%
viability, T/C [21]: 4.98%
viability, T/C [22]: 4.8%
viability, T/C [23]: 4.33%
viability, T/C [24]: 2.48%
viability, T/C [25]: 39.7%
viability, T/C [26]: 6.77%
viability, T/C [27]: 4.52%
viability, T/C [28]: 5.28%
viability, T/C [29]: 4.61%
viability, T/C [30]: 2.97%
viability, T/C [31]: 48.6%
viability, T/C [32]: 13.3%
viability, T/C [33]: 6.55%
viability, T/C [34]: 5.55%
viability, T/C [35]: 5.13%
viability, T/C [36]: 1.86%

O=c1[nH]cc(F)c(=O)[nH]1 + Cc1cccc(N(C)C(=O)C2C(O)CCN2c2nc(C)cc(C(F)(F)F)c2C#N)c1
IC50 (second compound 0.0316 µM): 4630 nM
IC50 (second compound 0.1 µM): 2490 nM
IC50 (second compound 0.316 µM): 2290 nM
IC50 (second compound 1 µM): > 10000 nM
IC50 (second compound 3.16 µM): 1460 nM
IC50 (second compound 10 µM): 10000 nM
viability, T/C [1]: 97.5%
viability, T/C [2]: 91.7%
viability, T/C [3]: 63.8%
viability, T/C [4]: 71.5%
viability, T/C [5]: 48.6%
viability, T/C [6]: 45.2%
viability, T/C [7]: 91.6%
viability, T/C [8]: 106%
viability, T/C [9]: 101%
viability, T/C [10]: 69.1%
viability, T/C [11]: 49.4%
viability, T/C [12]: 36.3%
viability, T/C [13]: 85.5%
viability, T/C [14]: 78.7%
viability, T/C [15]: 89.8%
viability, T/C [16]: 62.4%
viability, T/C [17]: 45.6%
viability, T/C [18]: 44.6%
viability, T/C [19]: 95%
viability, T/C [20]: 63.2%
viability, T/C [21]: 63%
viability, T/C [22]: 56.8%
viability, T/C [23]: 52.3%
viability, T/C [24]: 47.8%
viability, T/C [25]: 99.3%
viability, T/C [26]: 95%
viability, T/C [27]: 66%
viability, T/C [28]: 55.2%
viability, T/C [29]: 45.3%
viability, T/C [30]: 47.3%
viability, T/C [31]: 97.1%
viability, T/C [32]: 103%
viability, T/C [33]: 52.7%
viability, T/C [34]: 58.5%
viability, T/C [35]: 49.7%
viability, T/C [36]: 43%
